Assay results: the supplement of paper PMC10307832

Experiments:
Experiment in all cases: relative viability (nuclei count vs DMSO), 5 days (fraction); higher = more cells survive
[1] = compound: CC1=CC(=CC=C1)NC2=NC(=CS2)C3=CC=NC=C3 + COc1cccc2cc(-c3nc([C@H]4CC[C@H](C(=O)O)CC4)n4ncnc(N)c34)[nH]c12 [OSI-027] (partner 0.5 µM)
Method in brief: (§1)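 Values are medians from duplicate plates. Each reflects relative viability, defined as the nuclei count of treated wells over that of vehicle wells. Lung cancer cell lines in 1536-well plates were pin-tool dosed one day after seeding with one drug alone or with a fixed anchor-drug dose plus five library-drug doses (not always all listed) in √10 steps, then fixed, stained and imaged at 4× after 5 days.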

[2] = compound: CC1=CC(=CC=C1)NC2=NC(=CS2)C3=CC=NC=C3 + CS(=O)(=O)N1CCN(Cc2cc3nc(-c4cccc5[nH]ncc45)nc(N4CCOCC4)c3s2)CC1 [Pictilisib] (partner 1 µM)
Method in brief: as §1

[3] = compound: CC1=CC(=CC=C1)NC2=NC(=CS2)C3=CC=NC=C3 + C[C@]1(O)C[C@@H](c2nc(-c3ccc4ccc(-c5ccccc5)nc4c3)c3c(N)nccn32)C1 [Linsitinib] (partner 1 µM)
Method in brief: as §1

[4] = compound: CC1=CC(=CC=C1)NC2=NC(=CS2)C3=CC=NC=C3 + Cc1cc(Nc2cc(N3CCN(C)CC3)nc(Sc3ccc(NC(=O)C4CC4)cc3)n2)n[nH]1 [Tozasertib] (partner 0.1 µM)
Method in brief: as §1

| Cell Line | relative viability ([1]; first compound 0.08 µM) | relative viability ([1]; first compound 0.253 µM) | relative viability ([1]; first compound 0.8 µM) | relative viability ([1]; first compound 2.53 µM) | relative viability ([1]; first compound 8 µM) | relative viability ([2]; first compound 0.08 µM) | relative viability ([2]; first compound 0.253 µM) | relative viability ([2]; first compound 0.8 µM) | relative viability ([2]; first compound 2.53 µM) | relative viability ([2]; first compound 8 µM) | relative viability ([3]; first compound 0.08 µM) | relative viability ([3]; first compound 0.253 µM) | relative viability ([3]; first compound 0.8 µM) | relative viability ([3]; first compound 2.53 µM) | relative viability ([3]; first compound 8 µM) | relative viability ([4]; first compound 0.08 µM) | relative viability ([4]; first compound 0.253 µM) | relative viability ([4]; first compound 0.8 µM) | relative viability ([4]; first compound 2.53 µM) | relative viability ([4]; first compound 8 µM) |
| --- | --- | --- | --- | --- | --- | --- | --- | --- | --- | --- | --- | --- | --- | --- | --- | --- | --- | --- | --- | --- |
| LXF-289 | 0.794 | 0.786 | 0.753 | 0.729 | 0.838 | 0.714 | 0.75 | 0.733 | 0.715 | 0.74 | 0.971 | 0.933 | 0.955 | 0.986 | 0.85 | 0.168 | 0.182 | 0.188 | 0.189 | 0.13 |
| NCI-H23 | 0.48 | 0.485 | 0.654 | 0.526 | 0.555 | 0.33 | 0.482 | 0.555 | 0.434 | 0.462 | 0.491 | 0.607 | 0.639 | 0.584 | 0.583 | 0.404 | 0.324 | 0.296 | 0.253 | 0.418 |
| NCI-H322M | 0.418 | 0.508 | 0.574 | 0.519 | 0.565 | 0.446 | 0.452 | 0.372 | 0.495 | 0.622 | 0.832 | 0.937 | 0.791 | 1.12 | 0.771 | 0.419 | 0.444 | 0.478 | 0.519 | 0.492 |
| NCI-H358 | 0.674 | 0.821 | 0.715 | 0.82 | 0.728 | 0.289 | 0.345 | 0.307 | 0.381 | 0.38 | 0.733 | 0.798 | 0.639 | 0.8 | 0.666 | 0.112 | 0.116 | 0.11 | 0.118 | 0.101 |
| NCI-H441 | 0.492 | 0.499 | 0.605 | 0.61 | 0.672 | 0.44 | 0.529 | 0.476 | 0.489 | 0.543 | 0.497 | 0.574 | 0.708 | 0.523 | 0.497 | 0.617 | 0.536 | 0.527 | 0.492 | 0.484 |
| NCI-H460 | 0.623 | 0.522 | 0.628 | 0.486 | 0.341 | 0.311 | 0.257 | 0.337 | 0.354 | 0.336 | 0.736 | 0.95 | 0.605 | 0.862 | 0.525 | 0.486 | 0.337 | 0.395 | 0.0737 | 0.113 |
| NCI-H520 | 0.259 | 0.252 | 0.302 | 0.193 | 0.251 | 0.281 | 0.346 | 0.301 | 0.278 | 0.299 | 0.91 | 0.935 | 0.975 | 0.986 | 1 | 0.372 | 0.458 | 0.481 | 0.514 | 0.458 |
| NCI-H596 | 0.652 | 0.775 | 0.777 | 0.64 | 0.609 | 0.347 | 0.378 | 0.34 | 0.402 | 0.264 | 1.03 | 0.995 | 0.764 | 0.991 | 0.806 | 0.93 | 0.968 | 0.745 | 0.861 | 0.746 |
| NCI-H647 | 0.531 | 0.471 | 0.659 | 0.585 | 0.644 | – | 0.289 | 0.388 | 0.317 | 0.231 | 1.01 | 0.992 | 1.05 | 1.1 | 0.815 | 0.266 | 0.29 | 0.286 | 0.316 | 0.222 |
| NCI-H650 | 0.509 | 0.511 | 0.544 | 0.475 | 0.578 | 0.771 | 0.863 | 0.893 | – | 0.822 | 0.659 | 0.739 | 1.13 | – | 1.06 | 0.654 | 0.646 | 0.78 | 0.645 | 0.727 |
| NCI-H661 | 0.621 | 0.653 | 0.687 | 0.7 | 0.578 | 0.447 | 0.47 | 0.407 | 0.397 | 0.489 | 0.589 | 0.577 | 0.577 | 0.63 | 0.643 | 0.33 | 0.367 | 0.353 | 0.341 | 0.333 |
| NCI-H727 | – | 0.412 | 0.597 | 0.618 | 0.568 | 0.26 | 0.287 | 0.313 | 0.343 | 0.375 | 0.283 | 0.283 | 0.268 | 0.199 | 0.343 | – | 0.582 | 0.539 | 0.58 | 0.458 |
| NCI-H838 | 0.318 | 0.357 | 0.37 | 0.386 | 0.348 | 0.382 | 0.334 | 0.4 | 0.288 | 0.289 | 0.882 | 0.937 | 0.855 | 0.868 | 0.651 | 0.229 | 0.227 | 0.242 | 0.234 | 0.225 |
| NCI-H1355 | 0.262 | 0.323 | 0.291 | 0.343 | 0.383 | 0.268 | 0.315 | 0.348 | 0.292 | 0.327 | 0.713 | 0.584 | 0.579 | 0.673 | 0.568 | 0.518 | 0.516 | 0.428 | 0.335 | 0.281 |
| NCI-H1395 | 0.555 | 0.567 | 0.663 | 0.505 | 0.638 | 0.569 | 0.602 | 0.531 | 0.627 | 0.697 | 0.999 | 0.949 | 1.01 | 0.932 | 0.903 | 0.604 | 0.782 | 0.689 | 0.669 | 0.693 |
| NCI-H1437 | 1.04 | 1.02 | 1.08 | 1.04 | 0.714 | 0.53 | 0.613 | 0.689 | 0.294 | 0.285 | 0.945 | 1.01 | 0.913 | 1 | 0.759 | 0.417 | 0.465 | 0.448 | 0.448 | 0.407 |
| NCI-H1651 | 0.71 | 0.649 | 0.77 | 0.75 | 0.737 | 0.476 | 0.651 | 0.749 | 0.465 | 0.588 | 0.958 | 0.955 | 0.919 | 0.999 | 0.926 | 0.62 | 0.684 | 0.561 | 0.531 | 0.51 |
| NCI-H1666 | 0.582 | 0.598 | 0.676 | 0.501 | 0.507 | 0.326 | 0.358 | 0.351 | 0.329 | 0.3 | 0.781 | 0.614 | 0.432 | 0.474 | 0.41 | 0.588 | 0.56 | 0.503 | 0.582 | 0.436 |
| NCI-H1734 | 0.481 | 0.554 | 0.654 | 0.7 | 0.618 | 0.479 | 0.499 | 0.494 | 0.588 | 0.43 | 0.828 | 0.981 | 0.869 | 0.835 | 0.719 | 0.25 | 0.285 | 0.22 | 0.246 | 0.23 |
| NCI-H1755 | 0.485 | 0.7 | 0.58 | 0.653 | 0.588 | 0.339 | 0.401 | 0.338 | 0.344 | 0.367 | 0.949 | 0.886 | 0.857 | 0.911 | 0.677 | 0.539 | 0.608 | 0.47 | 0.539 | 0.394 |
| NCI-H1793 | 0.238 | 0.25 | 0.315 | 0.249 | 0.217 | – | 0.326 | 0.357 | 0.22 | 0.264 | – | 0.763 | 0.92 | 0.753 | 0.825 | 0.298 | 0.335 | 0.27 | 0.242 | 0.21 |
| NCI-H1915 | 0.598 | 0.61 | 0.602 | 0.575 | 0.587 | 0.834 | 0.853 | 0.888 | 0.759 | 0.92 | 1.1 | 1.08 | 1.05 | 1.09 | 0.989 | 0.455 | 0.442 | 0.411 | 0.367 | 0.404 |
| NCI-H1944 | 0.374 | 0.36 | 0.384 | 0.329 | 0.39 | 0.29 | 0.309 | 0.327 | 0.304 | 0.297 | 1.17 | 1.15 | 1.26 | 1.19 | 1.12 | 0.291 | 0.24 | 0.226 | 0.203 | 0.178 |
| NCI-H1975 | 0.699 | 0.653 | 0.628 | 0.483 | 0.267 | 0.229 | 0.216 | 0.188 | 0.199 | 0.191 | 0.825 | 0.868 | 0.702 | 0.754 | 0.738 | 0.693 | 0.654 | 0.281 | 0.181 | 0.179 |
| NCI-H1993 | 0.523 | 0.524 | 0.586 | 0.576 | 0.56 | 0.804 | 0.907 | 0.788 | 0.822 | 0.779 | 0.675 | 0.605 | 0.714 | 0.698 | 0.738 | 0.543 | 0.605 | 0.562 | 0.617 | 0.519 |
| NCI-H2009 | 0.589 | 0.668 | 0.676 | 0.625 | 0.586 | 0.724 | 0.837 | 0.692 | 0.856 | 0.957 | 1.15 | 1.16 | 1.1 | 1.18 | 1.15 | 0.737 | 0.699 | 0.715 | 0.823 | 0.704 |
| NCI-H2023 | 0.337 | 0.269 | 0.376 | 0.228 | 0.207 | 0.161 | 0.177 | 0.215 | 0.175 | 0.18 | 0.63 | 0.666 | 0.618 | 0.678 | 0.507 | 0.332 | 0.332 | 0.321 | 0.228 | 0.116 |
